Columns and labels:
Beagle dogs = assay: Emetic action on dogs; assay type: in vivo; details: oral, 1 mg/kg
Method: Beagle dogs received a suspension of each test compound in 0.5% CMC-Na solution orally at a dose of 1 mg/2 mL/kg.

CYP2D6 = molecular target: T1, CYP2D6 (Homo sapiens, UniProt P10635); assay: Inhibition of drug-metabolizing enzyme CYP2D6 (CYP2D6/AMMC kit); assay type: in vitro ADME; details: CYP2D6-expressing microsomes, AMMC substrate, 37° C., 30 minutes; read-out: Inhibition of Drug-Metabolizing Enzymes (IC50; μM) CYP2D6
T1 construct: purchased BD Biosciences, NJ, USA; host or cells: CYP2D6-expressing system microsomes
T1 sequence (P10635 whole entry): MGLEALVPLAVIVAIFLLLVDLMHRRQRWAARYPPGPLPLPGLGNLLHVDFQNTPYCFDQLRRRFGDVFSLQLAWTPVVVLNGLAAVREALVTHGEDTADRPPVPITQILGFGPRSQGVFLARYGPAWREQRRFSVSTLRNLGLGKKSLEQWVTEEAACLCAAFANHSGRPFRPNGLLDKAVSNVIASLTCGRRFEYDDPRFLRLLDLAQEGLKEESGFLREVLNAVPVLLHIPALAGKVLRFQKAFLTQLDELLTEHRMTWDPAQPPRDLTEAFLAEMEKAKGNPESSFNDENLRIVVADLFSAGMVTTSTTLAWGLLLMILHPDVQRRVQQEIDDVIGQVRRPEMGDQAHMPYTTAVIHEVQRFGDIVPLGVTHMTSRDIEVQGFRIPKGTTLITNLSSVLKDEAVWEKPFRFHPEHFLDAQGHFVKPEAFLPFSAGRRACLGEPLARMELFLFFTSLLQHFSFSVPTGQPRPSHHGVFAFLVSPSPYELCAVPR
Method: (§1) The inhibitory effect on CYP2D6 and CYP3A4 was determined using High Throughput Inhibitor Screening Kits: CYP2D6/AMMC and CYP3A4/BFC (both from BD Biosciences, NJ, USA). Briefly, each of NADPH regenerating systems, cofactors, and test compounds was dispensed into 96-well plates, followed by addition of each of fluorescent substrates, AMMC (CYP2D6) or BFC (CYP3A4). To each well were added CYP2D6-expressing system microsomes or CYP3A4-expressing system microsomes, and the plates were incubated at 37° C. for 30 minutes, and then read for fluorescent signals (CYP2D6: ex=390 nm, em=460 nm; CYP3A4: ex=409 nm, em=538 nm wherein excitation wavelength: ex and emission wavelength: em). Thus, each inhibitory efficacy on enzymes CYP2D6 and CYP3A4 was determined. Roflumilast was used for the reference compound in this assay.

[1] = test system: T2, PDE IV isozymes separated from U937 culture cells; assay: PDE IV inhibition ([3H]-cAMP hydrolysis); assay type: biochemical; details: cAMP 1 μM substrate, 30° C., 20 minutes
T2 construct: PDE IV isozymes as used herein were separated from U937 culture cells by using an anion exchange chromatography
Method: PDE IV isozymes as used herein were separated from U937 culture cells by using an anion exchange chromatography. Type IV PDE isozyme was admixed with ethylene glycol (EG) to adjust the final EG concentration to 30%, then stored at −20° C. and diluted when used. The enzymatic activity for PDE IV was measured using cAMP as a substrate.
Each test compound was dissolved in DMSO to adjust the final concentration to 1% (2.5 μl/tube).
Incubation Buffer Solution (pH7.5):
• Tris-HCl (50 mM), magnesium chloride (6 mM), dithiothreitol (2.5 mM), 5-nucleotidase (4 μg/ml), bovine serum albumin (0.23 mg/ml), and cAMP (1 μM).
A mixture of the aforementioned test compound solution and the buffer solution was incubated at 30° C. for 20 minutes. The reaction was quenched by admixing with 1 ml of anion exchange resin slurry (AG1-X8, 200-400 meshes, chloride form; Bio-Rad) to absorb unreacted substrates. After the reaction stopped, the mixture was centrifuged at 800×g for 10 minutes, and the resulting supernatant was collected with vials in 250 μl aliquots. To each vial was added 5 ml of ACS-II (scintillator, Amersham). The radioactivity was measured with a liquid scintillator counter for [^3H]-adenosine and set as the PDE IV activity.

CYP3A4 = molecular target: T3, CYP3A4 (Homo sapiens, UniProt P08684); assay: Inhibition of drug-metabolizing enzyme CYP3A4 (CYP3A4/BFC kit); assay type: in vitro ADME; details: CYP3A4-expressing microsomes, BFC substrate, 37° C., 30 minutes; read-out: Inhibition of Drug-Metabolizing Enzymes (IC50; μM) CYP3A4
T3 construct: purchased BD Biosciences, NJ, USA; host or cells: CYP3A4-expressing system microsomes
T3 sequence (P08684 whole entry): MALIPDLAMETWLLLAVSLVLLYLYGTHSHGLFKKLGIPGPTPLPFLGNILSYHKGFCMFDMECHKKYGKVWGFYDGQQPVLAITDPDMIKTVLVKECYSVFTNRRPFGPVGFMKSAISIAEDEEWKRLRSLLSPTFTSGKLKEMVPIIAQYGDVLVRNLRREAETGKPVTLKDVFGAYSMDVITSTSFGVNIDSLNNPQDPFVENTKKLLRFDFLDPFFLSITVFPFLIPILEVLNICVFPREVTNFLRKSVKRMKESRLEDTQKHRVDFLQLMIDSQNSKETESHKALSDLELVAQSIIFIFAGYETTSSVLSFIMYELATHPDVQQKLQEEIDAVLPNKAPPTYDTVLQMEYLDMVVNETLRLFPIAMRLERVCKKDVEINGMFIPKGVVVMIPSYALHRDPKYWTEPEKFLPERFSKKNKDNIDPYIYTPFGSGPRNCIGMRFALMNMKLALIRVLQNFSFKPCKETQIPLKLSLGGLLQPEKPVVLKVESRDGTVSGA
Method: as §1

rats = assay: Toxicology study (2-weeks administration to rats); assay type: in vivo; details: oral, 1, 5, or 25 mg/5 ml/kg
Method: Each compound of the present invention (Example Nos. 9 and 33) was administered orally to rats (6 animals per group) as a test compound. […] The test compound was suspended in 0.5% CMC-Na solution and given orally to the animal at a dose of 1, 5, or 25 mg/5 ml/kg in a forced manner.

[2] = test system: actively sensitized guinea pigs; assay: Inhibition of antigen-induced immediate asthmatic response (airway resistance, Konzett-Rossler); assay type: in vivo, Hartley guinea pigs; details: Cavia porcellus, oral, 60 minutes prior to antigen-challenge, reduction of increase in airway resistance, read-out: Inhibition of Asthmatic response ED50: mg/kg orally
Method: Male Hartley outbred guinea pigs were sensitized by administering intraperitoneally physiological saline (0.5 ml) containing ovalbumin (1 mg, antigen) and 5×10^9 inactivated Bordetella pertussis dead cells (adjuvant). Eleven to thirteen days after the first sensitization, 0.05 ml of an ovalbumin solution (1 mg/ml) (ovalbumin is dissolved in physiological saline) was administered to the lateroabdominal region of each guinea pig intracutaneously. An establishment of sensitization was checked relying on cutaneous reaction. Only guinea pigs wherein significant reddening responses occurred 5 to 10 minutes later were employed in the next measurement test for airway resistance.
The guinea pigs (3 animals per group) actively sensitized in the above step (1) were employed to measure for their airway pressure according to Konzett-Rossler method (Arch. Exp. Path. Pharmakol., 195, 71 (1940)).
Thirteen days after the final sensitization, guinea pigs fasted overnight, and were on the next day anesthetized with a pentobarbital solution (30 mg/1.2 ml/kg, dissolved in physiological saline, intraperitoneal administration). After the guinea pigs were fixed in a supine position, their trachea was incised followed by insertion with one port of a 4-port cannula. Among the remaining 3 ports, 2 ports were connected to an artificial respirator (Model 683, Harvard). The animals were ventilated with 10 ml/kg of air per ventilation at a rate of 60 beats/min via the artificial respirator from the cannula. One port remainder was connected to a respiratory amplifier (AR-601G, Nihon Kohden, Japan) via an airflow resistance tube (TV-241T, Nihon Kohden, Japan) and a differential pressure transducer (TP-602T, Nihon Kohden, Japan) connected with a control box (RY-111S, Nihon Kohden, Japan). From a catheter inserted into a left carotid artery, blood pressures were monitored with a blood pressure measurement unit (AP641G, NEC Corp., Japan) via a blood pressure transducer (TP-300T, Nihon Kohden, Japan), and heart rates were recorded on a thermal recorder (WT-685G, Nihon Kohden, Japan), relying on blood pressure pulse waves after being led to a cardiograph unit (AT601G, Nihon Kohden, Japan).
After airway pressure became stable, an ovalbumin solution (1 mg/ml, dissolved in physiological saline) was administered at a dose of 1 ml/kg via a tube with which the right jugular vein of guinea pigs was cannulated.
Each test compound was suspended in 0.5% CMC-Na solution and administered orally with an oral sound at a dose of 0.03 to 20 mg/2 ml/kg 60 minutes prior to the antigen-challenge. Control groups received only 0.5% CMC-Na solution in an equivalent amount. The pentobarbital-anesthetization and tracheal incision were conducted 30 minutes prior to the antigen-challenge.
Each percent reduction of increase in airway resistance (each test compound-administered group versus control group) was calculated according to the equation given below. ED50 was obtained by Probit method.

In the case of `O=c1c2c(Cc3ccccc3)n[nH]c2c2cccnc2n1-c1ccccc1` [Example No. 9, 3-benzyl-5-phenyl-1H-pyrazolo[4,3-c][1,8]naphthyridin-4 (5H)-one], the Occurrence of emesis (Beagle dogs) is reported as “no observation for emetic actions”, the IC50 (CYP2D6) is reported as > 10 µM and the IC50 [1] is reported as 0.084 µM. The IC50 (CYP3A4) was 8.5 µM, the “Abnormality in other parameters” value (rats) was “no clear abnormality was observed” and the Body weight gain (rats) was “No significant reduction of body weight gains was observed”. The Mortality (rats) was “None of the animals were died” and the ED50 [2] was 0.16 mg/kg.

`O=c1c2c(Cc3ccc(F)cc3)n[nH]c2c2cccnc2n1-c1ccccc1` [Example No. 33, 3-(4-fluorobenzyl)-5-phenyl-1H-pyrazolo[4,3-c][1,8]naphthyridin-4 (5H)-one] was tested, and the Occurrence of emesis (Beagle dogs) was “no observation for emetic actions”, the IC50 (CYP2D6) was > 10 µM and the IC50 [1] was 0.068 µM. The IC50 (CYP3A4) was 6.2 µM, the “Abnormality in other parameters” value (rats) was “no clear abnormality was observed” and the Body weight gain (rats) was “No significant reduction of body weight gains was observed”. The Mortality (rats) was “None of the animals were died” and the ED50 [2] was 0.33 mg/kg.

Source: US7608716B2, “Pyrazolonaphthyridine derivative” (Aska Pharmaceutical Co., Ltd., priority 2002, dated 2009)
